From ChEMBL document CHEMBL2440076, “New triarylpyrazoles as broad-spectrum anticancer agents: design, synthesis, and biological evaluation” (Eur J Med Chem, 2013)

Assays:
Type in all cases: functional
[1] = Growth inhibition of human HCC2998 cells assessed as cell growth at 10^-6 M after 48 hrs by sulforhodamine B assay; conditions: HCC 2998, 48 h, read-out: Activity
IGROV-1 = experiment: Growth inhibition of human IGROV1 cells assessed as cell growth at 10^-6 M after 48 hrs by sulforhodamine B assay; conditions: IGROV-1, 48 h, read-out: Activity
SF-268 = experiment: Growth inhibition of human SF268 cells assessed as cell growth at 10^-6 M after 48 hrs by sulforhodamine B assay; conditions: SF-268, 48 h, read-out: Activity
HL-60(TB) [2] = experiment: Growth inhibition of human HL-60(TB) cells assessed as cell growth at 10^-4 M after 48 hrs by sulforhodamine B assay; conditions: HL-60, 48 h, read-out: Activity
UO-31 = experiment: Growth inhibition of human UO31 cells assessed as cell growth at 10^-4 M after 48 hrs by sulforhodamine B assay; conditions: UO-31, 48 h, read-out: Activity
SNB-75 = experiment: Growth inhibition of human SNB75 cells assessed as cell growth at 10^-4 M after 48 hrs by sulforhodamine B assay; conditions: SNB-75, 48 h, read-out: Activity
Malme-3M [3] = experiment: Growth inhibition of human MALME-3M cells assessed as cell growth at 10^-7 M after 48 hrs by sulforhodamine B assay; conditions: read-out: Activity
NCI-H460 = experiment: Growth inhibition of human NCI-H460 cells assessed as cell growth at 10^-5 M after 48 hrs by sulforhodamine B assay; conditions: NCI-H460, 48 h, read-out: Activity
HL-60(TB) [4] = experiment: Growth inhibition of human HL-60(TB) cells assessed as cell growth at 10^-5 M after 48 hrs by sulforhodamine B assay; conditions: HL-60, 48 h, read-out: Activity
[5] = Growth inhibition of human NCI-ADR-RES cells assessed as cell growth at 10^-8 M after 48 hrs by sulforhodamine B assay; conditions: read-out: Activity
CAKI-1 = experiment: Growth inhibition of human CAKI-1 cells assessed as cell growth at 10^-4 M after 48 hrs by sulforhodamine B assay; conditions: CAKI-1, 48 h, read-out: Activity
DU-145 = experiment: Growth inhibition of human DU145 cells assessed as cell growth at 10^-7 M after 48 hrs by sulforhodamine B assay; conditions: DU-145, 48 h, read-out: Activity
HT-29 = experiment: Growth inhibition of human HT-29 cells assessed as cell growth at 10^-7 M after 48 hrs by sulforhodamine B assay; conditions: HT-29, 48 h, read-out: Activity
NCI-H522 = experiment: Growth inhibition of human NCI-H522 cells assessed as cell growth at 10^-8 M after 48 hrs by sulforhodamine B assay; conditions: NCI-H522, 48 h, read-out: Activity
SK-MEL-5 = experiment: Growth inhibition of human SK-MEL-5 cells assessed as cell growth at 10^-7 M after 48 hrs by sulforhodamine B assay; conditions: SK-MEL-5, 48 h, read-out: Activity
SF-295 = experiment: Growth inhibition of human SF295 cells assessed as cell growth at 10^-6 M after 48 hrs by sulforhodamine B assay; conditions: SF-295, 48 h, read-out: Activity
NCI-H23 = experiment: Growth inhibition of human NCI-H23 cells assessed as cell growth at 10^-4 M after 48 hrs by sulforhodamine B assay; conditions: NCI-H23, 48 h, read-out: Activity
U-251 = experiment: Growth inhibition of human U251 cells assessed as cell growth at 10^-5 M after 48 hrs by sulforhodamine B assay; conditions: U-251, 48 h, read-out: Activity
SW-620 = experiment: Growth inhibition of human SW620 cells assessed as cell growth at 10^-8 M after 48 hrs by sulforhodamine B assay; conditions: SW-620, 48 h, read-out: Activity
RXF 393 = experiment: Growth inhibition of human RXF393 cells assessed as cell growth at 10^-5 M after 48 hrs by sulforhodamine B assay; conditions: RXF 393, 48 h, read-out: Activity
COLO 205 = experiment: Growth inhibition of human COLO205 cells assessed as cell growth at 10^-6 M after 48 hrs by sulforhodamine B assay; conditions: COLO 205, 48 h, read-out: Activity
[6] = Growth inhibition of human NCI-ADR-RES cells assessed as cell growth at 10^-5 M after 48 hrs by sulforhodamine B assay; conditions: read-out: Activity
OVCAR-8 = experiment: Growth inhibition of human OVCAR8 cells assessed as cell growth at 3X10'-9 M after 48 hrs by sulforhodamine B assay; conditions: OVCAR-8, 48 h, read-out: Activity
SF-539 = experiment: Growth inhibition of human SF539 cells assessed as cell growth at 3X10'-8 M after 48 hrs by sulforhodamine B assay; conditions: SF-539, 48 h, read-out: Activity
BT-549 = experiment: Growth inhibition of human BT549 cells assessed as cell growth at 3X10'-9 M after 48 hrs by sulforhodamine B assay; conditions: BT-549, 48 h, read-out: Activity
HCT-116 = experiment: Growth inhibition of human HCT116 cells assessed as cell growth at 3X10'-9 M after 48 hrs by sulforhodamine B assay; conditions: HCT-116, 48 h, read-out: Activity
HOP-62 = experiment: Growth inhibition of human HOP62 cells assessed as cell growth at 3X10'-6 M after 48 hrs by sulforhodamine B assay; conditions: HOP-62, 48 h, read-out: Activity
SK-OV-3 = experiment: Growth inhibition of human SKOV3 cells assessed as cell growth at 3X10'-8 M after 48 hrs by sulforhodamine B assay; conditions: SK-OV-3, 48 h, read-out: Activity
MCF7 = experiment: Growth inhibition of human MCF7 cells assessed as cell growth at 3X10'-5 M after 48 hrs by sulforhodamine B assay; conditions: MCF7, 48 h, read-out: Activity
OVCAR-4 = experiment: Growth inhibition of human OVCAR4 cells assessed as cell growth at 3X10'-9 M after 48 hrs by sulforhodamine B assay; conditions: OVCAR-4, 48 h, read-out: Activity
[7] = Growth inhibition of human NCI-ADR-RES cells assessed as cell growth at 3X10'-5 M after 48 hrs by sulforhodamine B assay; conditions: read-out: Activity
RPMI-8226 = experiment: Growth inhibition of human RPMI8226 cells assessed as cell growth at 3X10'-5 M after 48 hrs by sulforhodamine B assay; conditions: RPMI-8226, 48 h, read-out: Activity
PC-3 = experiment: Growth inhibition of human PC3 cells assessed as cell growth at 3X10'-7 M after 48 hrs by sulforhodamine B assay; conditions: PC-3, 48 h, read-out: Activity
NCI-H322M = experiment: Growth inhibition of human NCI-H322M cells assessed as cell growth at 3X10'-9 M after 48 hrs by sulforhodamine B assay; conditions: read-out: Activity
Malme-3M [8] = experiment: Growth inhibition of human MALME-3M cells assessed as cell growth at 3X10'-9 M after 48 hrs by sulforhodamine B assay; conditions: read-out: Activity

COc1cc(-c2nn(-c3cccc(NC(=O)c4ccccc4)c3)cc2-c2ccncc2)ccc1Cl
growth at 1 µM [1]: 75% | growth at 1 µM (IGROV-1): 35% | growth at 1 µM (SF-268): 47% | growth at 100 µM (HL-60(TB) [2]): 16% | growth at 100 µM (UO-31): 24% | growth at 100 µM (SNB-75): 11% | growth at 0.1 µM (Malme-3M [3]): 82% | growth at 10 µM (NCI-H460): 7% | growth at 10 µM (HL-60(TB) [4]): 13% | growth at 0.01 µM [5]: 98% | growth at 100 µM (CAKI-1): 7% | growth at 0.1 µM (DU-145): 100% | growth at 0.1 µM (HT-29): 98% | growth at 0.01 µM (NCI-H522): 91% | growth at 0.1 µM (SK-MEL-5): 91% | growth at 1 µM (SF-295): 15% | growth at 100 µM (NCI-H23): 18% | growth at 10 µM (U-251): 17% | growth at 0.01 µM (SW-620): 96% | growth at 10 µM (RXF 393): -9% | growth at 1 µM (COLO 205): 32% | growth at 10 µM [6]: 5%

O=C(Nc1cccc(-n2cc(-c3ccncc3)c(-c3ccc(Cl)c(O)c3)n2)c1)Nc1ccc(Cl)c(C(F)(F)F)c1
growth at 0.003 µM (OVCAR-8): 100% | growth at 0.03 µM (SF-539): 94% | growth at 0.003 µM (BT-549): 102% | growth at 0.003 µM (HCT-116): 105% | growth at 3 µM (HOP-62): 11% | growth at 0.03 µM (SK-OV-3): 102% | growth at 30 µM (MCF7): 2% | growth at 0.003 µM (OVCAR-4): 99% | growth at 30 µM [7]: -1% | growth at 30 µM (RPMI-8226): -15% | growth at 0.3 µM (PC-3): 73% | growth at 0.003 µM (NCI-H322M): 97% | growth at 0.003 µM (Malme-3M [8]): 100%

O=C(Nc1cccc(-n2cc(-c3ccncc3)c(-c3ccc(Cl)c(O)c3)n2)c1)Nc1cccc(C(F)(F)F)c1
growth at 0.003 µM (OVCAR-8): 99% | growth at 0.03 µM (SF-539): 100% | growth at 0.003 µM (BT-549): 91% | growth at 0.003 µM (HCT-116): 96% | growth at 3 µM (HOP-62): 70% | growth at 0.03 µM (SK-OV-3): 96% | growth at 30 µM (MCF7): 2% | growth at 0.003 µM (OVCAR-4): 101% | growth at 30 µM [7]: 7% | growth at 30 µM (RPMI-8226): 5% | growth at 0.3 µM (PC-3): 82% | growth at 0.003 µM (NCI-H322M): 95% | growth at 0.003 µM (Malme-3M [8]): 96%

COc1cc(-c2nn(-c3cccc(NC(=O)Nc4ccc(Cl)c(C(F)(F)F)c4)c3)cc2-c2ccncc2)ccc1Cl
growth at 0.003 µM (OVCAR-8): 105% | growth at 0.03 µM (SF-539): 93% | growth at 0.003 µM (BT-549): 103% | growth at 0.003 µM (HCT-116): 102% | growth at 3 µM (HOP-62): 22% | growth at 0.03 µM (SK-OV-3): 104% | growth at 30 µM (MCF7): 2% | growth at 0.003 µM (OVCAR-4): 96% | growth at 30 µM [7]: -5% | growth at 30 µM (RPMI-8226): -7% | growth at 0.3 µM (PC-3): 80% | growth at 0.003 µM (NCI-H322M): 93% | growth at 0.003 µM (Malme-3M [8]): 112%

COc1cc(-c2nn(-c3cccc(NC(=O)c4ccc(Cl)c(C(F)(F)F)c4)c3)cc2-c2ccncc2)ccc1Cl
growth at 0.003 µM (OVCAR-8): 100% | growth at 0.03 µM (SF-539): 102% | growth at 0.003 µM (BT-549): 96% | growth at 0.003 µM (HCT-116): 100% | growth at 3 µM (HOP-62): 73% | growth at 0.03 µM (SK-OV-3): 100% | growth at 30 µM (MCF7): 13% | growth at 0.003 µM (OVCAR-4): 98% | growth at 30 µM [7]: -19% | growth at 30 µM (RPMI-8226): 5% | growth at 0.3 µM (PC-3): 78% | growth at 0.003 µM (NCI-H322M): 91% | growth at 0.003 µM (Malme-3M [8]): 80%

COc1cc(-c2nn(-c3cccc(NC(=O)c4ccc(N5CCOCC5)c(C(F)(F)F)c4)c3)cc2-c2ccncc2)ccc1Cl
growth at 1 µM [1]: 52% | growth at 1 µM (IGROV-1): 33% | growth at 1 µM (SF-268): 41% | growth at 100 µM (HL-60(TB) [2]): 6% | growth at 100 µM (UO-31): -13% | growth at 100 µM (SNB-75): 2% | growth at 0.1 µM (Malme-3M [3]): 52% | growth at 10 µM (NCI-H460): 1% | growth at 10 µM (HL-60(TB) [4]): 2% | growth at 0.01 µM [5]: 102% | growth at 100 µM (CAKI-1): -4% | growth at 0.1 µM (DU-145): 98% | growth at 0.1 µM (HT-29): 106% | growth at 0.01 µM (NCI-H522): 97% | growth at 0.1 µM (SK-MEL-5): 53% | growth at 1 µM (SF-295): 4% | growth at 100 µM (NCI-H23): -9% | growth at 10 µM (U-251): -17% | growth at 0.01 µM (SW-620): 99% | growth at 10 µM (RXF 393): -41% | growth at 1 µM (COLO 205): 5% | growth at 10 µM [6]: 2%

O=C(Nc1cccc(-n2cc(-c3ccncc3)c(-c3ccc(Cl)c(O)c3)n2)c1)Nc1ccc(Cl)c(Cl)c1
growth at 0.003 µM (OVCAR-8): 103% | growth at 0.03 µM (SF-539): 95% | growth at 0.003 µM (BT-549): 99% | growth at 0.003 µM (HCT-116): 94% | growth at 3 µM (HOP-62): 35% | growth at 0.03 µM (SK-OV-3): 99% | growth at 30 µM (MCF7): 2% | growth at 0.003 µM (OVCAR-4): 103% | growth at 30 µM [7]: 6% | growth at 30 µM (RPMI-8226): 3% | growth at 0.3 µM (PC-3): 81% | growth at 0.003 µM (NCI-H322M): 95% | growth at 0.003 µM (Malme-3M [8]): 92%
